Reference: patent US4684664A, “Derivatives of β-(4-isocyano-1,2,3,4-diepoxycyclopentyl) acrylic acid” (Kureha Kagaku Kogyo Kabushiki Kaisha, priority 1984, dated 1987)
≈ marks a conversion by molar mass, not a printed value.

Tests used:
Format in all cases: cell-based
[1] = tested on: Staphylococcus aureus FDA 209PJc-1; test: Antibacterial activity, agar-dilution MIC, organism No. 1; conditions: Staphylococcus aureus, FDA209PJC1; Organism No. 1, bouillon-agar; read-out: Minimum Inhibitory Concentration
Text: (§1) Agar-dilution method was used for determination of the antibacterial activity and antifungal activity while using bouillon-agar culture medium, and the minimum inhibitory concentration of the specimen was expressed by μg/ml of the culture medium.

[2] = tested on: Staphylococcus aureus Terajima; test: Antibacterial activity, agar-dilution MIC, organism No. 2; conditions: Staphylococcus aureus; Organism No. 2, bouillon-agar; read-out: Minimum Inhibitory Concentration
Text: as §1

[3] = tested on: Staphylococcus aureus MS 353; test: Antibacterial activity, agar-dilution MIC, organism No. 3; conditions: Staphylococcus aureus, MS353; Organism No. 3, bouillon-agar; read-out: Minimum Inhibitory Concentration
Text: as §1

[4] = tested on: Streptococcus pyogenes Cook; test: Antibacterial activity, agar-dilution MIC, organism No. 4; conditions: Streptococcus pyogenes; Organism No. 4, bouillon-agar; read-out: Minimum Inhibitory Concentration
Text: as §1

[5] = tested on: Escherichia coli NIHJ-JC-2; test: Antibacterial activity, agar-dilution MIC, organism No. 5; conditions: Escherichia coli, NIHJJC2; Organism No. 5, bouillon-agar; read-out: Minimum Inhibitory Concentration
Text: as §1

[6] = tested on: Escherichia coli K12 C600 IAM 1264; test: Antibacterial activity, agar-dilution MIC, organism No. 6; conditions: Escherichia coli, IAM1264; Organism No. 6, bouillon-agar; read-out: Minimum Inhibitory Concentration
Text: as §1

[7] = tested on: Klebsiella pneumoniae PCI-602; test: Antibacterial activity, agar-dilution MIC, organism No. 7; conditions: Klebsiella pneumoniae, PCI602; Organism No. 7, bouillon-agar; read-out: Minimum Inhibitory Concentration
Text: as §1

[8] = tested on: Salmonella typhimurium IID 971; test: Antibacterial activity, agar-dilution MIC, organism No. 8; conditions: Salmonella enterica; Organism No. 8, bouillon-agar; read-out: Minimum Inhibitory Concentration
Text: as §1

[9] = tested on: Salmonella typhi 901; test: Antibacterial activity, agar-dilution MIC, organism No. 9; conditions: Salmonella enterica, TYPHI, read-out: Minimum Inhibitory Concentration
Text: as §1

[10] = tested on: Salmonella paratyphi-A 1015; test: Antibacterial activity, agar-dilution MIC, organism No. 10; conditions: Salmonella enterica, PARATYPHI, read-out: Minimum Inhibitory Concentration
Text: as §1

[11] = tested on: Salmonella shottmuelleri 8006; test: Antibacterial activity, agar-dilution MIC, organism No. 11; conditions: Salmonella, 8006; Organism No. 11, bouillon-agar; read-out: Minimum Inhibitory Concentration
Text: as §1

[12] = tested on: Salmonella enteritidis G 14; test: Antibacterial activity, agar-dilution MIC, organism No. 12; conditions: Salmonella enterica, ENTERITIDIS; Organism No. 12, bouillon-agar; read-out: Minimum Inhibitory Concentration
Text: as §1

[13] = tested on: Bacillus subtilis ATCC 6633; test: Antibacterial activity, agar-dilution MIC, organism No. 14; conditions: Bacillus subtilis, ATCC6633; Organism No. 14, bouillon-agar; read-out: Minimum Inhibitory Concentration
Text: as §1

[14] = tested on: Pseudomonas aeruginosa IFO 3445; test: Antibacterial activity, agar-dilution MIC, organism No. 15; conditions: Pseudomonas aeruginosa, IFO3445; Organism No. 15, bouillon-agar; read-out: Minimum Inhibitory Concentration
Text: as §1

[15] = tested on: Pseudomonas aeruginosa NCTC 10490; test: Antibacterial activity, agar-dilution MIC, organism No. 16; conditions: Pseudomonas aeruginosa, NCTC10490; Organism No. 16, bouillon-agar; read-out: Minimum Inhibitory Concentration
Text: as §1

[16] = tested on: Pseudomonas aeruginosa PAO 1; test: Antibacterial activity, agar-dilution MIC, organism No. 17; conditions: Pseudomonas aeruginosa, PAO1; Organism No. 17, bouillon-agar; read-out: Minimum Inhibitory Concentration
Text: as §1

[17] = tested on: Proteus morganii IFO 3848; test: Antibacterial activity, agar-dilution MIC, organism No. 18; conditions: Morganella morganii, IFO3848; Organism No. 18, bouillon-agar; read-out: Minimum Inhibitory Concentration
Text: as §1

[18] = tested on: Proteus mirabilis IFO 3849; test: Antibacterial activity, agar-dilution MIC, organism No. 19; conditions: Proteus mirabilis, IFO3849; Organism No. 19, bouillon-agar; read-out: Minimum Inhibitory Concentration
Text: as §1

[19] = tested on: Proteus vulgaris OX-19; test: Antibacterial activity, agar-dilution MIC, organism No. 20; conditions: Proteus vulgaris, OX19; Organism No. 20, bouillon-agar; read-out: Minimum Inhibitory Concentration
Text: as §1

[20] = tested on: Proteus vulgaris HX-19; test: Antibacterial activity, agar-dilution MIC, organism No. 21; conditions: Proteus vulgaris, HX19; Organism No. 21, bouillon-agar; read-out: Minimum Inhibitory Concentration
Text: as §1

[21] = tested on: Proteus rettgeri IFO 3850; test: Antibacterial activity, agar-dilution MIC, organism No. 22; conditions: Providencia rettgeri, IFO3850; Organism No. 22, bouillon-agar; read-out: Minimum Inhibitory Concentration
Text: as §1

[22] = tested on: Enterobacter aerogenes ATCC 13048; test: Antibacterial activity, agar-dilution MIC, organism No. 23; conditions: Klebsiella aerogenes, ATCC13048; Organism No. 23, bouillon-agar; read-out: Minimum Inhibitory Concentration
Text: as §1

[23] = tested on: Enterobacter cloacae 963; test: Antibacterial activity, agar-dilution MIC, organism No. 24; conditions: Enterobacter cloacae, 963; Organism No. 24, bouillon-agar; read-out: Minimum Inhibitory Concentration
Text: as §1

[24] = tested on: Micrococcus luteus ATCC 9341; test: Antibacterial activity, agar-dilution MIC, organism No. 25; conditions: Micrococcus luteus, ATCC9341; Organism No. 25, bouillon-agar; read-out: Minimum Inhibitory Concentration
Text: as §1

[25] = tested on: Streptococcus pyogenes IFO 3340; test: Antibacterial activity, agar-dilution MIC, organism No. 26; conditions: Streptococcus pyogenes, IFO3340; Organism No. 26, bouillon-agar; read-out: Minimum Inhibitory Concentration
Text: as §1

[26] = tested on: Streptococcus faecium IFO 3826; test: Antibacterial activity, agar-dilution MIC, organism No. 27; conditions: Enterococcus faecium, IFO3826; Organism No. 27, bouillon-agar; read-out: Minimum Inhibitory Concentration
Text: as §1

[27] = tested on: Mycoplasma pneumoniae IID817; test: Antimycoplasmal activity, MIC by phenol red colour change, organism No. 28; conditions: Mycoplasma, IID817; Organism No. 28, PPLO broth + 1% glucose, 37° C.; read-out: Minimum Inhibitory Concentration (MIC)
Protocol: Mycoplasma pneumoniae IID817 was used as the test microorganism in a culture medium prepared by adding 1% of glucose to "PPLO broth (manufactured by Difco Co.) liquid culture medium" at 37° C. with phenol red as an indicator, thereby culturing the test microorganism.

[28] = tested on: Candida albicans IAM 4905; test: Antifungal activity, agar-dilution MIC, organism No. 29; conditions: Candida albicans, IAM4905; Organism No. 29, bouillon-agar; read-out: Minimum Inhibitory Concentration
Text: as §1

[29] = tested on: Aspergillus niger IFO 6342; test: Antifungal activity, agar-dilution MIC, organism No. 30; conditions: Aspergillus niger, IFO6342; Organism No. 30, bouillon-agar; read-out: Minimum Inhibitory Concentration
Text: as §1

Row | SMILES | MIC [1] [µg/mL] | MIC [2] [µg/mL] | MIC [3] [µg/mL] | MIC [4] [µg/mL] | MIC [5] [µg/mL] | MIC [6] [µg/mL] | MIC [7] [µg/mL] | MIC [8] [µg/mL] | MIC [9] [µg/mL] | MIC [10] [µg/mL] | MIC [11] [µg/mL] | MIC [12] [µg/mL] | MIC [13] [µg/mL] | MIC [14] [µg/mL] | MIC [15] [µg/mL] | MIC [16] [µg/mL] | MIC [17] [µg/mL] | MIC [18] [µg/mL] | MIC [19] [µg/mL] | MIC [20] [µg/mL] | also measured
1 | [C-]#[N+]C12CC3(/C=C/C(=O)NC4C(=O)N5C4SC(C)(C)C5C(=O)OCC(=O)c4ccc(Br)cc4)OC3C1O2 (stereo not shown) [Compound No. 33] | 1.56 (≈ 2.65 µM) | 0.78 (≈ 1.33 µM) | 1.56 (≈ 2.65 µM) | 0.78 (≈ 1.33 µM) | 25 (≈ 42.5 µM) | 25 (≈ 42.5 µM) | 25 (≈ 42.5 µM) | 12.5 (≈ 21.2 µM) | 3.13 (≈ 5.32 µM) | 0.38 (≈ 0.646 µM) | 0.38 (≈ 0.646 µM) | 1.56 (≈ 2.65 µM) | 0.78 (≈ 1.33 µM) | > 200 | > 200 | > 200 | > 200 | > 200 | 100 (≈ 170 µM) | 1.56 (≈ 2.65 µM) | MIC [21]: > 100 µg/mL; MIC [22]: > 100 µg/mL; MIC [23]: 25 µg/mL (≈ 42.5 µM); MIC [24]: 3.13 µg/mL (≈ 5.32 µM); MIC [25]: 0.8 µg/mL (≈ 1.36 µM); MIC [26]: 0.8 µg/mL (≈ 1.36 µM); MIC [27]: < 0.2 µg/mL; MIC [28]: 1.56 µg/mL (≈ 2.65 µM); MIC [29]: 3.13 µg/mL (≈ 5.32 µM)
2 | [C-]#[N+]C12CC3(/C=C/C(=O)N[C@@H](C(=O)OCc4ccccc4)C(C)C)OC3C1O2 (stereo partly shown) [compound 30] | > 200 | > 200 | > 200 | > 200 | > 200 | > 200 | > 200 | > 200 | > 200 | > 200 | > 200 | > 200 | > 200 | > 200 | > 200 | > 200 | > 200 | > 200 | > 200 | > 200 | MIC [21]: > 200 µg/mL; MIC [22]: > 200 µg/mL; MIC [23]: > 200 µg/mL; MIC [24]: 1.56 µg/mL (≈ 4.08 µM); MIC [25]: > 200 µg/mL; MIC [26]: > 200 µg/mL; MIC [27]: > 100 µg/mL; MIC [28]: > 100 µg/mL; MIC [29]: > 100 µg/mL
